Test results taken from patent US20260250289A1, “BICYCLIC HETEROCYCLES AND THEIR USE AS WRN INHIBITORS” (Novartis AG, priority 2022, published 2026).

Legend:
[1] = test system: SW48 cells; assay: Proliferation assay SW48 (CellTiterGlo); format: cell-based; conditions: Homo sapiens, SW48, 96 h, SW48 colon carcinoma cells, 96 hours, CellTiterGlo; geometric mean of at least 2; read-out: Proliferation Assay SW48 GI50
How it was run: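 SW48 cells, 2,000/well, treated after overnight seeding with eight 3-fold compound dilutions (0.1% DMSO) for 96 hours at 37° C. Viability read as ATP by CellTiterGlo luminescence, normalised to a day-0 plate and vehicle to give % growth; GI50 is geometric mean of ≥2 independent replicates.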

[2] = test system: DLD1-WRN-KO cells; assay: Proliferation assay DLD1-WRN-KO (CellTiterGlo, off-target effects); format: cell-based; conditions: 96 hours, geometric mean of at least 2
How it was run: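 DLD1 cells with CRISPR knockout of WRN were exposed overnight-seeded to eight 3-fold compound dilutions (0.1% DMSO) for 96 h at 37 °C. Viability was read as ATP by CellTiterGlo luminescence against a day-0 plate, giving GI50 and residual viability at top concentration.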

[3] = molecular target: T1, WRN helicase (aa N517-P1238) (Homo sapiens, UniProt Q14191); assay: WRN ATPase assay (DNA dependent ATP hydrolysis, ADP-Glo); format: biochemical; conditions: 3 hours pre-incubation, 300 micromolar ATP, FLAP26 DNA; geometric mean of at least 2
T1 construct: The core helicase motif of the WRN protein (aa N517-P1238) was produced for this assay; His (N); ZZ (N); 3C protease cleavage site (N); made in house; host or cells: Sf21 insect cells (baculovirus; virus and BIICs made in SF9)
T1 sequence (Q14191 517-1238): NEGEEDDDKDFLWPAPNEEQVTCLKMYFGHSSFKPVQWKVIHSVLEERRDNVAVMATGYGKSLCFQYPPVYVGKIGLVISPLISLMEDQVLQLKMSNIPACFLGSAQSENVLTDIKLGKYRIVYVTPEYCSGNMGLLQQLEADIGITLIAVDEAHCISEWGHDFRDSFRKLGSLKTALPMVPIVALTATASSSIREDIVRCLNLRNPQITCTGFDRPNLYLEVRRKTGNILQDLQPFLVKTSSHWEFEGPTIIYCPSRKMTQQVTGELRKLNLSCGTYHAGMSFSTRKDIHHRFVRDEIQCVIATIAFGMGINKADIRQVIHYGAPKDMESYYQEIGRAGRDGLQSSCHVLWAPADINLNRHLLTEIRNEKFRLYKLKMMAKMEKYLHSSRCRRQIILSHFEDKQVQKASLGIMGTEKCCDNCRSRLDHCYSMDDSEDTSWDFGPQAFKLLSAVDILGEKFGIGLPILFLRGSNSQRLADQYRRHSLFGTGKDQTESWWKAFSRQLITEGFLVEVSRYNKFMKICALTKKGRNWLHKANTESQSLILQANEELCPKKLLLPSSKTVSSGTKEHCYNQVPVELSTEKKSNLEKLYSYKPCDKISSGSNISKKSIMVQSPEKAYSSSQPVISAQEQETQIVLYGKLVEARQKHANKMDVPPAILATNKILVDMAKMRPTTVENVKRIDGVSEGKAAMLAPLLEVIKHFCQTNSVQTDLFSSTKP
How it was run: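 DNA-dependent ATP hydrolysis detected as ADP by ADP-Glo luminescence, using 300 μM ATP, 0.2 nM FLAP26 substrate and 10 nM WRN aa N517-P1238 (Tris pH 7.5 buffer, 2 mM MgCl2, 50 mM NaCl). IC50s fitted from normalized duplicate half-log dilutions; reported as geometric means of at least 2 replicates.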

Row | Compound | GI50 [1] | GI50 [2] | IC50 [3]
1 | CCc1c(C2=CCN(C(C)=O)CC2)c(=O)n2nc(C3=CCCCO3)nc2n1CC(=O)Nc1ccc(C(F)(F)F)cc1 [Example 142, 2-(6-(1-acetyl-1,2,3,6-tetrahydropyridin-4-yl)-2-(3,4-dihydro-2H-pyran-6-yl)-5-ethyl-7-oxo-[1,2,4]triazolo[1,5-a]pyrimidin-4(7H)-yl)-N-(4-(trifluoromethyl)phenyl)acetamide] | 5000 nM | > 10000 nM | 600 nM
2 | CC(=O)N1CCN(c2c(C)n(CC(=O)Nc3ccc(C(F)(F)F)cc3)c3nc(C4=CCN(C(=O)OC(C)(C)C)CC4)nn3c2=O)CC1 [Example 105, tert-butyl 4-(6-(4-acetylpiperazin-1-yl)-5-methyl-7-oxo-4-(2-oxo-2-((4-(trifluoromethyl)phenyl)amino)ethyl)-4,7-dihydro-[1,2,4]triazolo[1,5-a]pyrimidin-2-yl)-3,6-dihydropyridine-1(2H)-carboxylate] | 800 nM | 5000 nM | 100 nM
3 | CCc1c(N2CCN(C(=O)c3c(F)ccc(F)c3O)CC2)c(=O)n2nc(C3=CCCCO3)nc2n1CC(=O)Nc1ccc(C(F)(F)F)cc1 [Example 38, 2-(6-(4-(3,6-difluoro-2-hydroxybenzoyl)piperazin-1-yl)-2-(3,4-dihydro-2H-pyran-6-yl)-5-ethyl-7-oxo-[1,2,4]triazolo[1,5-a]pyrimidin-4(7H)-yl)-N-(4-(trifluoromethyl)phenyl)acetamide] | 100 nM | > 10000 nM | 30 nM
4 | CCc1c(N2CCN(C(=O)c3c(O)ccc4ncccc34)CC2)c(=O)n2nc(C3=CCOCC3)nc2n1CC(=O)Nc1ccc(C(F)(F)F)cc1C [Example 18, 2-(2-(3,6-dihydro-2H-pyran-4-yl)-5-ethyl-6-(4-(6-hydroxyquinoline-5-carbonyl)piperazin-1-yl)-7-oxo-[1,2,4]triazolo[1,5-a]pyrimidin-4(7H)-yl)-N-(2-methyl-4-(trifluoromethyl)phenyl)acetamide] | 200 nM | > 10000 nM | 60 nM
5 | Cc1nnc(C(=O)N2CCN(c3c(C)n(CC(=O)Nc4ccc(C(F)(F)F)cc4)c4nc(C5=CCOCC5)nn4c3=O)CC2)[nH]1 [Example 159, 2-(2-(3,6-dihydro-2H-pyran-4-yl)-5-methyl-6-(4-(5-methyl-4H-1,2,4-triazole-3-carbonyl)piperazin-1-yl)-7-oxo-[1,2,4]triazolo[1,5-a]pyrimidin-4(7H)-yl)-N-(4-(trifluoromethyl)phenyl)acetamide] | > 10000 nM | > 10000 nM | 600 nM
